Data reported in patent US8778871B2 (Takeda Pharmaceutical Company Limited, priority 2004, dated 2014).
Non-standard residues stand in square brackets, D forms with d. Residues, ends and D or L forms follow the SMILES beside them. No end group written: not given here. *: point of attachment. Phe(4-F) = N[C@@H](Cc1ccc(F)cc1)C(=O)O; Arg(Me) = CNC(=N)NCCC[C@H](N)C(=O)O; Hydrocinnamoyl = O=C(CCc1ccccc1)*; Butyryl = CCCC(=O)*; Bz = O=C(c1ccccc1)*; GABA = NCCCC(=O)O; azaGly = NNC(=O)O; βAla = NCCC(=O)O

Experiments:
[1] = Blood testosterone level decreasing effect in mature male rat (2 mM peptide solution, ALZET osmotic pump); assay type: in vivo; conditions: 2 mM peptide solution in distilled water, ALZET osmotic pump s.c., 6 days, Tables 28 and 29
Experimental: (§1) This peptide solution was filled in 5 ALZET osmotic pumps (Model 2001, 0.2 ml in volume, release rate: 0.001 ml/hr, DURECT Corporation). The ALZET pumps filled with the peptide solution were implanted subcutaneously in 5 CD(SD)IGS male rats of 9 weeks old after birth (Charles River Japan, Inc.) on the back under ether anesthesia by one pump for one animal. For negative control, distilled water (Otsuka Pharmaceutical Co., Ltd.) was filled in 5 ALZET osmotic pumps, which were similarly implanted in 5 male CD(SD)IGS rats (Charles River Japan, Inc.), respectively. These pump-implanted rats were fed for 6 days under normal feeding conditions. After weighing, the animal was decapitated to collect blood. After 0.03 ml/ml blood of aprotinin solution (Trasylol, Bayer) containing 0.1 mg/ml EDTA.2Na was added to blood, the mixture was centrifuged at 1,800 G for 25 minutes to isolate/recover plasma. From the plasma obtained, 0.05 ml was applied to radioimmunoassay (DPC.Total Testosterone Kit, Diagnostic Products Corporation) to measure the plasma testosterone level of each rat. The value below the limit of measurement (0.04 ng/ml of plasma level) in radioimmunoassay was treated as 0. A mean value of the testosterone levels from 5 rats receiving the peptide was calculated and a relative value (percent) of the mean value to a mean value from 5 rats receiving distilled water.

hOT7T175 [2] = target: T1, hOT7T175 (Homo sapiens, UniProt Q969F8); test: Intracellular Ca ion level-increasing activity using FLIPR (180 seconds; specific activity to Metastin (1-54)); assay type: cell-based; conditions: hOT7T175/CHO, change in intracellular calcium ion level for 180 seconds, Tables 21-23
T1 construct: expressed in transfected cells

hOT7T175 [3] = target: T2, hOT7T175 (Homo sapiens, UniProt Q969F8, L364H); assay type: cell-based; conditions: hOT7T175/CHO, FLIPR, evaluation for 40 seconds after initiation of the reaction
T2 construct: expressed in transfected cells
Experimental: The intracellular Ca ion level-increasing activity was measured using FLIPR as in TEST EXAMPLE 2.

[4] = Blood testosterone level decreasing effect in mature male rat (0.1 mM peptide solution); assay type: in vivo
Experimental: as §1
In a manner similar to TEST EXAMPLE 14, evaluation was made using 0.1 mM peptide solution and a part of the results obtained are shown in TABLE 30.

[5] = Action of reducing testosterone level in blood in mature male rat (1 mM peptide in 50% DMSO, ALZET osmotic pump); assay type: in vivo; conditions: 1 mM peptide in 50% DMSO aqueous solution, ALZET osmotic pump s.c., six days
Experimental: The peptide was encapsulated in five ALZET osmotic pump (Model 2001, 0.2 ml of volume, releasing rate 0.001 ml/hr, DURECT Corporation). The ALZET pumps encapsulated with the peptide solution were implanted to dorsal subcutaneous of five male CD (SD) IGS rat at nine weeks age (Charles River Japan, Inc.) anesthesized with ether for one pump to one rat. Separately, for negative controls, the ALZET osmotic pumps encapsulated with distilled water were implanted to five male CD (SD) IGS rat (Charles River Japan, Inc.) The rats were bred for six days under the normal conditions. After weighing, blood was collected by decapitation. To 1 ml of blood, 0.03 ml of aprotinin (Trasylol, Byer) solution containing 0.1 g/ml EDTA 2Na was added. The plasma was isolated by centrifugation at 1,800×g for 25 minutes and collected. The thus obtained plasma, 0.05 ml was effected by radioimmunoassay. (DPC Total Testosterone Kit, Diagnostic Products Corporation) to measure testosterone level in blood of each rat. The value beneath measuring limit of radioimmunoassay (0.04 ng/ml as concentration of plasma) was treated as zero. The mean values for testosterone level of five rats, to which the peptide was given, was calculated and the relative value (percentage) for the mean values of testosterone level of five rats, to which distilled watrer was given, was estimated.

T2 sequence (Q969F8 whole entry L364H): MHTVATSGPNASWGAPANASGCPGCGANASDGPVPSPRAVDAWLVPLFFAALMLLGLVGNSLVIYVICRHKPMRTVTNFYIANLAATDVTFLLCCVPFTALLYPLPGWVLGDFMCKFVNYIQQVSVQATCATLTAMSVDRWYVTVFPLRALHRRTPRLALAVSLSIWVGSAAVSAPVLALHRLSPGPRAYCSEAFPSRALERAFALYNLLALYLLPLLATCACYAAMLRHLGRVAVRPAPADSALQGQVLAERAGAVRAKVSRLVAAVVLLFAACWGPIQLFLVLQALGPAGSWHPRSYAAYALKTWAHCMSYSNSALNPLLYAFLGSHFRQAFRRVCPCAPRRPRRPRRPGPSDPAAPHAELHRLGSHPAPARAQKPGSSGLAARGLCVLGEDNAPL
T1 sequence (Q969F8 whole entry L364H): as above

Compound	Teststerone level in Blood [1] [%]	intracellular Ca ion level-increasing activity [specific activity to Metastin (1-54)] (hOT7T175 [2])	Specific Act. (EC50/MS10 EC50) (hOT7T175 [3])	Teststerone level in Blood [4] [%]	Testosterone level in Blood [5] [%]
3-(3-Indolyl)propionyl-Phe-AzaGly-Leu-Arg(Me)-Trp-NH2 [Compound No. 354]	43	10	0.8	–	–
3-(3-Pyridyl)propionyl-Asn-Ser-Phe-AzaGly-Leu-Arg(Me)-Trp-NH2 [Compound No. 386]	23	7	2.9	–	–
3-Phenylpropionyl-Asn-Hyp-Phe-AzaGly-Leu-Arg(Me)-Trp-NH2 [Compound No. 517]	79	–	1.0	–	–
3-Phenylpropionyl-Asn-Ser-Phe(4F)-AzaGly-Leu-Arg(Me)-Trp-NH2 [Compound No. 508]	9	10	1.0	–	–
3-Phenylpropionyl-Asn-Thr-Phe-AzaGly-Leu-Arg(Me)-Trp-NH2 [Compound No. 505]	40	20	0.7	–	–
4-Pyridinecarbonyl-Phe-AzaGly-Leu-Arg(Me)-Trp-NH2 [Compound No. 436]	35	5	1.4	–	–
CNC(=N)NCCC[C@H](NC(=O)[C@H](CC(C)C)NC(=O)NNC(=O)[C@H](Cc1ccccc1)NC(=O)[C@H](CO)NC(=O)[C@H](CC(N)=O)NC(=O)CCc1ccccc1)C(=O)N[C@@H](Cc1ccccc1)C(N)=O [Compound No. 269, 3-Phenylpropionyl-Asn-Ser-Phe-AzaGly-Leu-Arg(Me)-Phe-NH2] (Hydrocinnamoyl-NSF[azaGly]L[Arg(Me)]F-NH2)	7	3	3.4	–	–
Ac-D-Arg-Acp-D-Tyr-D-Trp-Asn-Thr-Phe-AzaGly-Leu-Arg(Me)-Trp-NH2 [Compound No. 551]	–	–	1.2	8	–
Ac-D-Tyr-D-Pya(4)-Asn-Ser-Phe-AzaGly-Leu-Arg(Me)-Phe-NH2 [Compound No. 516]	–	–	3.7	3	–
Ac-D-Tyr-D-Pya(4)-Asn-Thr-Phe-AzaGly-Leu-Arg(Me)-Trp-NH2 [Compound No. 562]	–	–	1.0	11	–
Ac-[dY][dW]NSF[azaGly]L[Arg(Me)]W-NH2 [Compound No. 558]	–	–	0.4	2	–
Ac-[dY][dW]NTF[azaGly]L[Arg(Me)]F-NH2 [Compound No. 571]	–	–	1.2	17	–
Ac-[dY][dW]NTF[azaGly]L[Arg(Me)]W-NH2 [Compound No. 550]	–	–	0.7	2	–
Ac-[dY][dW]NVF[azaGly]L[Arg(Me)]W-NH2 [Compound No. 564]	–	–	0.5	66	2
Arg-Acp-D-Tyr-D-Pya(4)-Asn-Ser-Phe-AzaGly-Leu-Arg(Me)-Trp-NH2 [Compound No. 538]	–	–	3.3	45	–
Butyryl-[dY][dW]NTF[azaGly]L[Arg(Me)]W-NH2 [Compound No. 567]	–	–	0.8	86	–

Compound	Teststerone level in Blood [1] [%]	intracellular Ca ion level-increasing activity [specific activity to Metastin (1-54)] (hOT7T175 [2])	Specific Act. (EC50/MS10 EC50) (hOT7T175 [3])	Teststerone level in Blood [4] [%]	Testosterone level in Blood [5] [%]
Bz-NSF[azaGly]L[Arg(Me)]W-NH2 [Compound No. 509]	2	20	2.0	–	–
Bz-NS[Phe(4-F)][azaGly]L[Arg(Me)]W-NH2 [Compound No. 545]	–	–	1.1	37	2
Bz-NT[Phe(4-F)][azaGly]L[Arg(Me)]W-NH2 [Compound No. 523]	–	–	1.1	72	–
Bz-[dY][dW]NTF[azaGly]L[Arg(Me)]W-NH2 [Compound No. 565]	–	–	0.6	80	–
Cyclopropanecarbonyl-D-Tyr-D-Trp-Asn-Thr-Phe-AzaGly-Leu-Arg(Me)-Trp-NH2 [Compound No. 566]	–	–	0.8	89	–
D-Dap-Acp-D-Tyr-D-Trp-Asn-Thr-Phe-AzaGly-Leu-Arg(Me)-Trp-NH2 [Compound No. 552]	–	–	2.3	21	–
D-Nle-Acp-D-Tyr-D-Trp-Asn-Thr-Phe-AzaGly-Leu-Arg(Me)-Trp-NH2 [Compound No. 553]	–	–	1.9	39	–
D-Tyr-D-Pya(4)-Ala-Ser-Phe-AzaGly-Leu-Arg(Me)-Trp-NH2 [Compound No. 492]	65	5	1.1	–	–
D-Tyr-D-Pya(4)-Asn-Ser(Ac)-Phe-AzaGly-Leu-Arg(Me)-Trp-NH2 [Compound No. 547]	–	–	2.5	65	–
D-Tyr-D-Pya(4)-Asn-Ser-Cha-Gly-Leu-Arg(Me)-Trp-NH2 [Compound No. 496]	3	5	0.7	–	–
D-Tyr-D-Pya(4)-Asn-Val-Phe-AzaGly-Leu-Arg(Me)-Trp-NH2 [Compound No. 515]	2	10	1.0	–	–
GuAmb-Phe-AzaGly-Leu-Arg(Me)-Trp-NH2 [Compound No. 334]	40	–	–	–	–
[dR][GABA][dY][dW]NTF[azaGly]L[Arg(Me)]W-NH2 [Compound No. 555]	–	–	1.5	73	2
[dR][βAla][dY][dW]NTF[azaGly]L[Arg(Me)]W-NH2 [Compound No. 554]	–	–	1.3	52	–
[dY][dW]NSF[azaGly]L[Arg(Me)]W-NH2 [Compound No. 540]	–	–	0.7	55	–
